From patent publication US20260216219A1, “MODULATOR FOR PROMOTING BINDING OF BUTYROPHILIN 3A1/2A1” (priority 2023, published 2026)

What follows are compounds tested on MIAPaCa/FG2 cells (assay: EC50 assay of small molecule activated γδ T cells to kill tumor cells (10-fold dilution, 10^-12-10^-5 M)). Conditions: Homo sapiens, MIA PaCa-2, 20 h, read-out: MIApaca killing (nM).
Assay type: cell-based
Procedure: γδT cells and MIAPaCa/FG2 tumor cell lines were expanded and cultured in vitro. The MIAPaCa/FG2 cells were digested, and the cells were counted and resuspended in DMEM complete medium, the density of the cell suspension was adjusted and added into a 96-well plate at 5×10^3 cells/50 μL/well for overnight incubation. On the next day, the test compound and the control compound were diluted at a 10-fold ratio with γδT complete medium. 50 μL of diluted compound was transferred to the corresponding wells which had been plated with tumor cells, and the actual detection concentration was in the range of 10^−12-10^−5 M. γδT cells were resuspended in γδT complete medium, and the density of the cell suspension was adjusted according to the effector-target ratio of E:T=2:1, and then the cells were added to the corresponding wells at 1×10^4 cells/50 μL/well. After co-culture at 37° C., 5% CO2 for 20 hours, the cells were centrifuged. The supernatant was removed, and 50 μL of cell lysate containing luciferin substrate was added to each well. After standing for 18 minutes in the dark, the signal of chemiluminescence was detected. The EC50 value was calculated by four-parameter fitting, with the corresponding signal value of the well with only tumor cells as the minimum killing value, and the corresponding signal value of the well without tumor cells as the maximum killing value. The killing data of MIAPaCa/FG2 cells are as follows: […]

`C/C(=C\CCP(=O)(N[C@@H](C)C(=O)OC(C)C)Oc1ccccc1)CO` (stereo partly drawn) [Control compound 1, Isopropyl (((E)-5-hydroxy-4-methylpent-3-en-1-yl)(phenoxy)phosphoryl)-L-alaninate, reference compound] was tested, and the EC50 was 0.57 nM.

Same assay, conditions: Homo sapiens, MIA PaCa-2; γδT cells co-cultured with MIAPaCa/FG2 cells, E:T=2:1, 20 hours; compound diluted 10-fold, 10^-12-10^-5 M; chemiluminescence; read-out: MIApaca killing

`CC(C)OC(=O)[C@H](C)NP(=O)(OC/C=C(/CO)C(F)(F)F)Oc1ccc(C[C@H](NC(=O)OCc2ccccc2)C(=O)OC2CCCC2)cc1` (stereo partly drawn) [Compound 6] and `CC(C)OC(=O)[C@H](Cc1ccc(OP(=O)(N[C@@H](C)C(=O)OC2CCCC2)OC/C=C(/CO)C(F)(F)F)cc1)NC(=O)OCc1ccccc1` (stereo partly drawn) [Compound 7] are within 1.5-fold of each other in EC50: 11.4 nM for the first, 9.6 nM for the second.

Same assay, conditions: read-out: MIApaca killing; γδT cells co-cultured with MIAPaCa/FG2 cells, E:T=2:1, 20 hours; compound diluted 10-fold, 10^-12-10^-5 M; chemiluminescence

`C/C(=C\CCP(=O)(N[C@@H](C)C(=O)OC(C)C)Oc1ccc(C[C@H](NC(=O)OCc2ccccc2)C(=O)OC2CCCC2)cc1)CO` (stereo partly drawn) [Compound 1, Cyclopentyl (2S)-2-(benzyloxycarbonylamino)-3-[4-[[(E)-5-hydroxy-4-methyl-pent-3-enyl]-[[(1S)-2-isopropoxy-1-methyl-2-oxo-ethyl]amino]phosphoryl]oxyphenyl]propionate] and `C/C(=C\CCP(=O)(N[C@@H](C)C(=O)OC1CCCC1)Oc1ccc(C[C@H](NC(=O)OCc2ccccc2)C(=O)OC(C)C)cc1)CO` (stereo partly drawn) [Compound 4, Isopropyl (2S)-2-(benzyloxycarbonylamino)-3-[4-[[(E)-5-hydroxy-4-methyl-pent-3-enyl]-[[(1S)-2-isocyclopentyloxy-1-methyl-2-oxo-ethyl]amino]phosphoryl]oxyphenyl]propionate] are within 1.5-fold of each other in EC50: 0.1 nM for the first, 0.07 nM for the second.

`C/C(=C\CCP(=O)(N[C@@H](C)C(=O)OC(C)C)Oc1ccc(C[C@H](NC(=O)OCc2ccccc2)C(=O)O[C@H]2CCOC2)cc1)CO` (stereo partly drawn) [Compound 2, (S)-tetrahydrofuran-3-yl (2S)-2-(benzyloxycarbonylamino)-3-[4-[[(E)-5-hydroxy-4-methyl-pent-3-enyl]-[[(1S)-2-isopropoxy-1-methyl-2-oxo-ethyl]amino]phosphoryl]oxyphenyl]propionate] and `C/C(=C\CCP(=O)(N[C@@H](C)C(=O)OC(C)C)Oc1ccc(C[C@H](NC(=O)OCc2ccccc2)C(=O)O[C@@H]2CCOC2)cc1)CO` (stereo partly drawn) [Compound 3, (R)-tetrahydrofuran-3-yl (2S)-2-(benzyloxycarbonylamino)-3-[4-[[(E)-5-hydroxy-4-methyl-pent-3-enyl]-[[(1S)-2-isopropoxy-1-methyl-2-oxo-ethyl]amino]phosphoryl]oxyphenyl]propionate] are within 1.5-fold of each other in EC50: 0.12 nM for the first, 0.17 nM for the second.

Compound `C/C(=C\CCP(=O)(N[C@@H](C)C(=O)OC(C)C)Oc1ccc(C[C@H](NC(=O)CCc2ccccc2)C(=O)OC2CCCC2)cc1)CO` (stereo partly drawn) [Compound 5, Cyclopentyl (2S)-2-(3-phenylpropionylamino)-3-[4-[[(E)-5-hydroxy-4-methyl-pent-3-enyl]-[[(1S)-2-isopropoxy-1-methyl-2-oxo-ethyl]amino]phosphoryl]oxyphenyl]propionate] has an EC50 of 0.06 nM.

Same assay, conditions: γδT cells co-cultured with MIAPaCa/FG2 cells, E:T=2:1, 20 hours; compound diluted 10-fold, 10^-12-10^-5 M; chemiluminescence; read-out: MIApaca killing

For `C/C(=C\COP(=O)(O)OP(=O)(O)O)CO` [HMBPP control, reference compound], the EC50 was 2.1 nM.

These compounds were tested on MIAPaCa/FG2 cells (assay: EC50 assay of small molecule activated γδ T cells to kill tumor cells (3-fold dilution, 0.05-100 nM)). Conditions: T-cell, γδT cells co-cultured with MIAPaCa/FG2 cells, E:T=2:1, 20 hours, compound diluted 3-fold, chemiluminescence, read-out: killing data of MIAPaCa/FG2 cells (EC50).
Assay type: cell-based
Procedure: γδT cells and MIAPaCa/FG2 tumor cell lines were expanded and cultured in vitro. MIAPaCa/FG2 cells were digested, and the cells were counted and resuspended in DMEM complete medium, the density of the cell suspension was adjusted and added into a 96-well plate at 5×10^3 cells/50 μL/well for overnight incubation. On the next day, the test compound and the control compound were diluted at a 3-fold ratio with DMSO, and 4 μL of the diluted compound was added to 96 μL of culture medium for 25-fold dilution. 5 μL of 25-fold diluted compound was transferred to the corresponding well which had been plated with tumor cells, and the actual detection concentration was in the range of 0.05-100 nM. γδT cells were resuspended in γδT complete medium, and the density of the cell suspension was adjusted according to the effector-target ratio of E:T=2:1, and then the cell was added to the corresponding well at 1×10^4 cells/100 μL/well. After co-culture at 37° C., 5% CO2 for 20 hours, the cells were centrifuged. The supernatant was removed, and 50 μL of cell lysate containing […] substrate was added to each well. After standing for 18 minutes in the dark, the signal of chemiluminescence was detected. The EC50 value was calculated by four-parameter fitting, with the corresponding signal value of the well with only tumor cells as the minimum killing value, and the corresponding value of the well without tumor cells as the maximum killing value. The killing data of MIAPaCa/FG2 cells are as follows: […]

`C/C(=C\CCP(=O)(N[C@@H](C)C(=O)OC(C)C)Oc1ccccc1)CO` (stereo partly drawn) [Control compound 1, Isopropyl (((E)-5-hydroxy-4-methylpent-3-en-1-yl)(phenoxy)phosphoryl)-L-alaninate, reference compound] showed an EC50 of 0.53 nM.

Same assay, conditions: γδT cells co-cultured with MIAPaCa/FG2 cells, E:T=2:1, 20 hours, compound diluted 3-fold, chemiluminescence, read-out: killing data of MIAPaCa/FG2 cells (EC50)

Going from `C/C(=C\CCP(=O)(N[C@@H](C)C(=O)OC(C)C)Oc1ccc(C[C@H](NCCCc2ccccc2)C(=O)O[C@@H]2CCOC2)cc1)CO` (stereo partly drawn) [Compound 8] to `C/C(=C\CCP(=O)(N[C@@H](C)C(=O)OC(C)C)Oc1ccc(C[C@H](NCCCc2ccccc2)C(=O)O[C@H]2CCOC2)cc1)CO` (stereo partly drawn) [Compound 9], the EC50 falls from 0.052 nM to 0.012 nM (4.3-fold).

Going from `C/C(=C\CCP(=O)(N[C@@H](C)C(=O)OC(C)C)Oc1ccc(C[C@H](NCCc2ccccc2)C(=O)O[C@H]2CCOC2)cc1)CO` (stereo partly drawn) [Compound 11, (S)-Tetrahydrofuran-3-yl (2S)-3-(4-((((E)-5-hydroxy-4-methylpent-3-en-1-yl)(((S)-1-isopropoxy-1-oxopropan-2-yl)amino)phosphor yl)oxy)phenyl)-2-(phenethylamino)propionate] to `C/C(=C\CCP(=O)(N[C@@H](C)C(=O)OCC(C)C)Oc1ccc(C[C@H](NCCCc2ccccc2)C(=O)O[C@H]2CCOC2)cc1)CO` (stereo partly drawn) [Compound 12, (S)-tetrahydrofuran-3-yl (2S)-3-(4-((((E)-5-hydroxy-4-methylpent-3-en-1-yl)(((S)-1-isobutoxy-1-oxopropan-2-yl)amino)phosphoryl)oxy)phenyl)-2-((3-phenylpropyl)amino)propionate], the EC50 falls from 41.7 nM to 0.011 nM (3800-fold). The second is the more potent here.

Going from `CCC(CC)OC(=O)[C@H](C)NP(=O)(CC/C=C(\C)CO)Oc1ccc(C[C@H](NCCCc2ccccc2)C(=O)O[C@H]2CCOC2)cc1` (stereo partly drawn) [Compound 13, (S)-tetrahydrofuran-3-yl (2S)-3-(4-((((E)-5-hydroxy-4-methylpent-3-en-1-yl)(((S)-1-oxo-1-(pentan-3-yloxy)propan-2-yl)amino)phosphoryl)oxy)phenyl)-2-((3-phenylpropyl)amino)propionate] to `C/C(=C\CC[P@@](=O)(N[C@@H](C)C(=O)NC(C)C)Oc1ccc(C[C@H](NCCCc2ccccc2)C(=O)O[C@H]2CCOC2)cc1)CO` [Compound 14], the EC50 falls from 0.42 nM to 0.016 nM (26-fold).

First: C/C(=C\CC[P@](=O)(N[C@@H](C)C(=O)NC(C)C)Oc1ccc(C[C@H](NCCCc2ccccc2)C(=O)O[C@H]2CCOC2)cc1)CO [Compound 15]
Second: C/C(=C\CCP(=O)(N[C@@H](C)C(=O)OCC(C)C)Oc1ccc(C[C@H](NCCCc2ccccc2)C(=O)NC(C)C)cc1)CO (stereo partly drawn) [Compound 16, Isobutyl (((E)-5-hydroxy-4-methylpent-3-en-1-yl)(4-((S)-3-(isopropylamino)-3-oxo-2-((3-phenylpropyl)amino)propyl)phenoxy)phosphoryl)-L-alaninate]
The EC50 of the first is 150-fold higher: 1.6 nM for the first, 0.011 nM for the second. The second is the more potent here.
